A value given as a limit tells only on which side of the number the result lay.

Take `COc1nc2cc(Cl)ccc2nc1Cl`: the melting point (in general, the temperature, or range, at which the solid turns liquid) was in the range of 92 to 95 °C.

On to `CCn1cc(CN(C(=O)C2CCCc3ccc(OCc4ccccc4)cc32)c2ccc(C(C)C)cc2)cn1` (stereo not given), for which the melting point is 100 to 101 °C.

Compound `CCOC(=O)/C(=N\OC12CC3CC(CC(C3)C1)C2)c1csc(N)n1` displayed a melting point of 152 to 153 °C.

The compound `COc1ccc(C=CCCl)cc1` gave a melting point of 70 to 72 °C.

Take `C=CCc1c(OCC(O)COc2ccc3c(=O)cc(C(=O)O)oc3c2CC=C)ccc(C(C)=O)c1O` (stereo not given): the melting point is 105 °C.

For the compound `CCOC(=O)CCc1cc(F)c(N2CCNCC2)nc1Nc1ccc(F)cc1F`, the melting point is 121 to 123 °C.

With `CC(C)(C)c1nnc(S)n(N)c1=O`, the melting point lay within 209 to 212 °C.

Compound `COc1cccc(C2(CC(=O)O)CNC(=O)C2)c1` (stereo not given) showed a melting point of 144 to 146 °C.

Compound `CCOc1ccc(-c2nc3n(c2-c2ccc(OCC)cc2)CCS3)cc1` returned a melting point of 214 to 215 °C.

Turning to `O=C(O)c1ccc(COCc2csc3nc(C(=O)NCc4cccc(Br)c4)[nH]c(=O)c23)cc1`, the melting point was 231 to 233 °C.

Turning to `CCCNC(=O)Nc1ccc(C(=O)OC)c(NC(=O)NC(C)C)c1`, the melting point was in the range of 94 to 95 °C.

In the case of `Cc1occc1Sc1cncc2sc(C(N)=O)cc12`, the melting point lay in the range of 236 to 239 °C.

Turning to `Cc1nc(O)sc1CC(C)Cl` (stereo not given), the melting point was in the range of 91 to 93 °C.

`N[C@H](Cc1cccc(OC(F)(F)C(F)F)c1)[C@@H](O)c1csc(-c2ccccc2)n1` (racemic) returned a melting point of 128 to 130 °C.

`CC(C)c1ccc(S(=O)(=O)c2ccccc2)cc1S(=O)(=O)NC1CCN(C(=O)c2ccc(F)cc2)CC1` came in with a melting point of 218 to 220 °C.

`COC(=O)c1ccc(C(=O)Nc2ccc3c(c2)C(C)(C)CCC3(C)C)cc1` gave a melting point of 211 °C.

In turn, `Cc1cccc(SCn2cc(Cl)cnc2=O)c1` registered a melting point of 134 °C.

For `CCC(O)c1ccccc1CS(=O)(=O)NC(=O)Nc1nc(OC)cc(OC)n1` (stereo not given), the melting point is 95 to 98 °C.

`[N-]=[N+]=NCC1Cc2c(ccc3c2CCC(=O)N3)O1` (stereo not given) showed a melting point of 157 to 158 °C.

For the compound `CC(C)NCC(O)(Cn1cncn1)c1ccc(Cl)cc1Cl` (stereo not given), the melting point lay in the range of 132 to 133 °C.

Compound `CC(=O)c1cc(N2CCCC2)ccc1NC(=O)c1ccc(OCc2ccccc2)cc1` had a melting point of 175 to 178 °C.

On to `CCC(=O)c1ccc(OC)c(OC(C)C)c1`, for which the melting point fell in the range of 58.1 to 58.7 °C.

As for `Cn1cc(C(=O)Nc2ccccc2-c2cccc(C#N)c2)c(C(F)(F)F)n1`, the melting point lay in the range of 76 to 78 °C.

Turning to `CCOC(=O)c1cn(C2CC2)c2c(OC(F)F)c(Br)ccc2c1=O`, the melting point was 253 °C.

For `COc1cc(C)c(Br)cc1OCc1ccccc1`, the melting point was in the range of 110 to 111 °C.

For the compound `O=c1cc(-c2ccncn2)nc2n1CCCCC2Br` (racemic), the melting point was 117 to 119 °C.

Regarding `O=C(O)c1cccc2cc3ccc(Cl)cc3c(C(=O)O)c12`, the melting point lay in the range of 325 to 327 °C.

In the case of `Cc1ccc(-c2c(C(=O)O)n(CCCBr)c(=O)c3ncccc23)cc1`, the melting point is 194 to 196 °C.

Compound `CCCn1c(CCOC)nc2c(N)nc3cc(OC4CCOC4)ccc3c21` (stereo not given) had a melting point of 192 to 194 °C.

As for `CCC1Oc2cc(C(=O)OC)ccc2NC1=O` (stereo not given), the melting point was in the range of 132 to 134 °C.

Compound `CN(C(=O)Cc1csc(N)n1)c1ccc(Cl)cc1` came in with a melting point of 148 to 150 °C.

In the case of `CCCOC(C)c1ccc(-c2ccc(O)cc2)cc1` (single isomer, unassigned; (+)), the melting point was in the range of 123 to 125 °C.

For `O=C(N/C(=C\c1c[nH]c2ccccc12)C(=O)NCCc1ccccn1)OC1C2CC3CC(C2)CC1C3` (stereo not given), the melting point was 188 to 200 °C.

With `CCc1ccccc1NC(=O)c1ccc(CN2C(=O)C3(COc4cc5c(cc43)CCO5)c3ccccc32)cc1` (stereo not given), the melting point is 203 to 204 °C.

As for `Cc1c(C(=O)Nc2ccc(N3CCC(N4CCOCC4)CC3)c(Br)c2)cnn1-c1ccc(Cl)cc1`, the melting point lay within 205 to 210 °C.

With `CC(C#CC1=C(C)C(=O)C(O)CC1(C)C)=CCO` (stereo not given), the melting point lay within 84 to 86 °C.

Take `CC1=C(C(=O)O)C(c2cccc(Cl)c2Cl)C(c2nnco2)=C(C)N1` (stereo not given): the melting point was in the range of 187 to 190 °C.

`CCOC(=O)CNC(=O)CCCCCNC(=O)OC(C)(C)C` returned a melting point of 76 to 77 °C.

As for `COc1cc2[nH]c(=O)c3ccccc3c2cc1OC`, the melting point is 253 to 255 °C.

In turn, `CCOC(=O)c1cc2c3ccccc3n(Cc3ccccc3)c2cn1` displayed a melting point of 126 to 127 °C.

In turn, `CCCCc1nc(C(C)(C)O)c(C(=O)OCC)n1Cc1ccc(-c2ccccc2C(=O)OC(C)(C)C)cc1` gave a melting point of 92 to 93 °C.

Compound `COc1cc(C=O)c(F)cc1Cl` displayed a melting point of 120 to 122 °C.

Compound `COC(=O)c1cc(O)c2c(ccc3sc4ccc(F)cc4c32)n1` came in with a melting point of 269 to 271 °C.

For `COC(=O)Cc1csc2c(O)cccc12`, the melting point fell in the range of 147 to 148 °C.

In the case of `COc1ccc(S(=O)(=O)n2ccc3ccccc32)cc1`, the melting point fell in the range of 124 to 126 °C.

Regarding `COC(=O)CCC(=O)c1ccccc1N`, the melting point lay within 50 to 51 °C.

For the compound `Cc1ccc(C(=O)CCCC(C)C(=O)O)cc1` (stereo not given), the melting point fell in the range of 50 to 50.5 °C.

Regarding `O=C(CCC(=O)OC(=O)CCC(=O)OCc1ccccc1)OCc1ccccc1`, the melting point was in the range of 70 to 71 °C.

Compound `Cc1ccsc1C(=O)Cc1ccc(Cl)cc1[N+](=O)[O-]` gave a melting point of 105 to 107 °C.

Turning to `COC(=O)C1=C(N)CC2CC[C@H]1N2C`, the melting point fell in the range of 95 to 98 °C.

With `CO/N=C(\C(=O)OC)c1nsc(NC(=O)OC)n1`, the melting point was 158 to 161 °C.

In the case of `CCCCN(CCCC)C(=O)/C=C/c1ccc(Cn2c(-c3ccc(F)cc3)c(C)c3cc(O)ccc32)cc1`, the melting point was 180 °C.

`CN1C(=O)C(Br)=C(c2cn(C)c3ccccc23)C1=O` came in with a melting point of 155 to 158 °C.

In turn, `Cc1occ(-c2ccccc2F)c1C(=O)Nc1cccc(CO)c1` gave a melting point of 163 to 164 °C.

Take `CC(C)(Oc1cccc(C(=O)c2ccc(Cl)cc2)c1)C(=O)O`: the melting point turned out to be 144 °C.

On to `CNC(=O)C(=NOC)c1ccccc1COc1ncc(C)cc1C(=O)OC(C)C`, for which the melting point is 165 to 166 °C.

Compound `Cc1cccc(CC(=O)Nc2cc(Cl)c(Cl)cc2[N+](=O)[O-])c1` had a melting point of 122 to 124 °C.

In turn, `CCOC(=O)C(Cc1ccccc1)NC(=O)COc1ccc(C2=NNC(=O)NC2)cc1` (stereo not given) displayed a melting point of 148 to 150 °C.

With `O=C(O)CCc1cn(Cc2ccc(OCc3ccc(-c4ccccc4)nc3)cc2)nc1-c1ccccc1`, the melting point was 155 to 156 °C.

For the compound `COc1ccccc1NC(=O)Nc1nc(Nc2ccc3ccccc3c2)nc(N(CCC(=O)O)Cc2ccc(Cl)c(Cl)c2)n1`, the melting point was in the range of 115 to 120 °C.

`CC(C)=C1C(=O)N(c2cc(F)c(C#N)cc2F)C(=O)C1=C(C)C`: the melting point was found to be 144 °C.

As to `Cc1ncsc1C(C)(O)c1ccsc1` (stereo not given), the melting point was 149 to 151 °C.

`O=C(O)C1(c2ccc(CN3CCN(c4ccc(F)cc4F)CC3)cc2)CC1`: the melting point lay in the range of 70 to 74 °C.

For the compound `COc1cc(OCC(CO)CO)c(-c2cccs2)cc1C=CC(=O)c1ccc(C(=O)O)cc1`, the melting point fell in the range of 199 to 201 °C.

As to `CCC(CCNC(=O)C(C#N)=Cc1cc(O)c(O)c(OC)c1)NC(=O)C(C#N)=Cc1cc(O)c(O)c(OC)c1` (stereo not given), the melting point turned out to be 256 °C.

With `CC(=O)c1ccc(S(=O)(=O)NCCCn2ccnc2)cc1`, the melting point lay in the range of 142 to 144 °C.

In turn, `COc1cc(C=CC(=O)N2CCN(c3nc(N)c4cc(OC)c(OC)cc4n3)CC2)cc(OC)c1` returned a melting point of 132 to 135 °C.

`FC(F)(F)Oc1ccc(C2CCC3(CC2)OCCO3)cc1`: the melting point amounted to 41.2 °C.

Take `CCOC(=O)c1ccc(/C=C(\C)c2ccc3c(c2)C(C)(C)C(=O)CC3(C)C)cc1`: the melting point was in the range of 173 to 174 °C.

As to `CC(C)=NNC(=O)c1ccc(-c2ccc(Cl)cc2)o1`, the melting point was 167 to 169 °C.

As to `CN1C(=O)CCCc2ccc(Nc3ncc(Cl)c(N[C@@H]4CCCC[C@H]4NS(C)(=O)=O)n3)cc21`, the melting point is 127 to 130 °C.

Take `CC(=NNC(=O)c1cc([N+](=O)[O-])cc2ccccc12)c1ccncc1`: the melting point is 228 °C.

With `O=c1[nH]c2cc(C(F)(F)F)c(C(F)(F)F)cc2[nH]c1=O`, the melting point is above 250 °C.

`CON(c1ccc([N+](=O)[O-])cc1C#N)S(=O)(=O)c1ccc(Cl)s1`: the melting point was in the range of 144 to 146 °C.

As to `COc1ccc(OCCCCBr)c(C2Sc3cc(Cl)ccc3N(C)C2=O)c1` (stereo not given), the melting point is 106 to 107 °C.

Regarding `CN1C(=O)NCc2cccnc21`, the melting point is 140 to 143 °C.

In turn, `CCCCCCCCOc1ccc(-c2ccc(OCC(C)OC(=O)C(C)CC)cc2)cc1` (stereo not given) gave a melting point of 56 °C.

`Cn1c(C(F)(F)F)ccc(-c2cc([N+](=O)[O-])c(F)cc2F)c1=O`: the melting point was in the range of 115 to 118 °C.

`COC(=O)c1c(NC(C)=O)sc2c1CCCC2` yielded a melting point of 103 to 106 °C.

Compound `Clc1ccc2c(c1)C(c1ccccc1Cl)=NCc1nccn1-2` yielded a melting point of 179 to 180 °C.

With `CCC(=O)c1ncc(Nc2cc(C)[nH]n2)nc1Nc1ccc(F)cc1`, the melting point lay within 208 to 210 °C.

Take `CN1CC[C@@H](c2c(O)cc(O)c3c(=O)cc(-c4ccccc4F)oc23)[C@@H]1CO`: the melting point is 206 to 208 °C.

`COc1c(-c2nnc(C)s2)cc2oc(=O)c(C)c(C)c2c1C` had a melting point of 201 to 203 °C.

In turn, `COC(=O)c1cc(S(C)(=O)=O)c(Nc2ccc(S(F)(F)(F)(F)F)cc2)cc1C` had a melting point of 106 to 109 °C.

`COC(=O)c1cc2c(Oc3ccc(Cl)cc3)cncc2s1` yielded a melting point of 99 to 100 °C.

The compound `CCCc1c(OCCCS(=O)(=O)c2ccc(C(=O)OC)cn2)ccc(C(C)=O)c1O` had a melting point of 114 to 116 °C.

`CN1C2=NC(C)(C)N(C)C(=O)N2c2ccccc21` yielded a melting point of 79 to 82 °C.

Compound `O=C(O)CS(=O)(=O)c1ccc2c(-c3ccccc3F)noc2c1` had a melting point of 168 to 169 °C.

`CN1CCNC(c2ccccc2)c2cc([N+](=O)[O-])ccc21` (stereo not given): the melting point was 96 to 99 °C.

As to `COc1ccc2[nH]c(/C(=C/c3ccccc3)c3ccccc3)cc2c1`, the melting point was in the range of 144 to 147 °C.
